Measured values as given in ChEMBL document CHEMBL2346515, “Discovery of 4-alkylamino-7-aryl-3-cyanoquinoline LRRK2 kinase inhibitors” (Bioorg Med Chem Lett, 2013).
Each block holds one compound with its values, some of them ahead of it.

Legend:
[1] = molecular target: Glycogen synthase kinase-3 beta (Homo sapiens) (UniProt P49841); test: Inhibition of GSK3beta (unknown origin) at 10 uM by single point assay
[2] = molecular target: Tyrosine-protein kinase ABL1 (Homo sapiens) (UniProt P00519); test: Inhibition of ABL1 (unknown origin) at 10 uM by single point assay
[3] = molecular target: Tyrosine-protein kinase JAK1 (Homo sapiens) (UniProt P23458); test: Inhibition of JAK1 (unknown origin) at 10 uM by single point assay
Chain of Tyrosine-protein kinase JAK1 (Homo sapiens) (P23458 whole entry): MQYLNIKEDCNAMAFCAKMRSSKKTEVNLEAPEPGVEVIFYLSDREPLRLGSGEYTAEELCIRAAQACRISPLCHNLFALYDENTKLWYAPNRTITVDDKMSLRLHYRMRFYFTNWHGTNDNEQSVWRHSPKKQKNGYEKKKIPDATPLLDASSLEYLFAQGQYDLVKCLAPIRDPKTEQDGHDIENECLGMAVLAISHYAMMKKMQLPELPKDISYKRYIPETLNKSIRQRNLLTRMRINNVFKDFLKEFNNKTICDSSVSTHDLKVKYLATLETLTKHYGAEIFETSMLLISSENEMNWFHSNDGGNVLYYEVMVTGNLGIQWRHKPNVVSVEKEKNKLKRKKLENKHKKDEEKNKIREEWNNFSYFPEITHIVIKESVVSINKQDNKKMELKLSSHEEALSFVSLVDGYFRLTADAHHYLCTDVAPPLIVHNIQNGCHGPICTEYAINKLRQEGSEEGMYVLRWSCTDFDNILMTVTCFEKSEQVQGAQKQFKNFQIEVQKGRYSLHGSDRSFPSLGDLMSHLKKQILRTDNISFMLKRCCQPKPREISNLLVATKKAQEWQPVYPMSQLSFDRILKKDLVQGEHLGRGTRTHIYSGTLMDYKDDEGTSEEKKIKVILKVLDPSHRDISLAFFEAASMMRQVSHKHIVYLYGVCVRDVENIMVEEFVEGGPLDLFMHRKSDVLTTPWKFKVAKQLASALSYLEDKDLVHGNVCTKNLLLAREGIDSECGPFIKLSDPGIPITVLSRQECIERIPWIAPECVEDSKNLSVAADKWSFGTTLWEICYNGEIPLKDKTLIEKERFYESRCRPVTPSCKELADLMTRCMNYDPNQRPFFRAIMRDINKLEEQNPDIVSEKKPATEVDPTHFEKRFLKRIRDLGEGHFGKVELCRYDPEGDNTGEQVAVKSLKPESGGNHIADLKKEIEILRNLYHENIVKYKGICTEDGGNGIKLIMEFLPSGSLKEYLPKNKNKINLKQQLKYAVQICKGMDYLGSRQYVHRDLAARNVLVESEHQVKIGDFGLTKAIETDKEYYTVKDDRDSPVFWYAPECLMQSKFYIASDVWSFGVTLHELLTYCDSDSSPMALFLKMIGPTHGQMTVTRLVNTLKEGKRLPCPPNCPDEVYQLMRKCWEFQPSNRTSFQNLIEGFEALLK

[4] = molecular target: Serine/threonine-protein kinase MARK2 (Homo sapiens) (UniProt Q7KZI7); test: Inhibition of MARK2 (unknown origin) at 10 uM by single point assay
[5] = molecular target: T1, Dual specificity protein kinase TTK (Homo sapiens) (UniProt P33981); test: Inhibition of TTK (unknown origin) at 10 uM by single point assay
T1 sequence (whole entry): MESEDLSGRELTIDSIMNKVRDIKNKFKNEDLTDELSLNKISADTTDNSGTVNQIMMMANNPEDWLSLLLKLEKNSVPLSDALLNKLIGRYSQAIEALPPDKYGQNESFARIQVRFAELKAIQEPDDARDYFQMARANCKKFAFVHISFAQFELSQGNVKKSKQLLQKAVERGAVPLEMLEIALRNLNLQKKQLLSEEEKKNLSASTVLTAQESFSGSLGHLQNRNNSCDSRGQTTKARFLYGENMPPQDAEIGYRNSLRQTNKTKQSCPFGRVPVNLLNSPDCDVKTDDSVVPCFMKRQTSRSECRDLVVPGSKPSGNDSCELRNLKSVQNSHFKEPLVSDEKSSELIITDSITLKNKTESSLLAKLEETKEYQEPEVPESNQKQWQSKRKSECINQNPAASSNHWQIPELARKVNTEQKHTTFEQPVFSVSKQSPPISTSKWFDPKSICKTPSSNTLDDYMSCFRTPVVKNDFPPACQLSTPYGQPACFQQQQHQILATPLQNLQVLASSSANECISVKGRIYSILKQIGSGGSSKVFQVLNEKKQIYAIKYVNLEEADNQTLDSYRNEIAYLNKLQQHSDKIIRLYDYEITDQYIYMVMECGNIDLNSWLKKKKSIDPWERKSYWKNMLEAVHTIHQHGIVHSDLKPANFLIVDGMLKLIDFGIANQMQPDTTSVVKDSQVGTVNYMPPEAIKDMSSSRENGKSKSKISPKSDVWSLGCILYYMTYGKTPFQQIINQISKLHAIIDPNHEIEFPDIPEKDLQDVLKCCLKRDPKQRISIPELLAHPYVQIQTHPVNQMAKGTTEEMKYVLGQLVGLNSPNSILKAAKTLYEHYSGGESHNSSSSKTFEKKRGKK

[6] = molecular target: Cyclin-dependent kinase 1/cyclin B1 (Homo sapiens) (UniProt P06493+P14635); test: Inhibition of CDK1/cyclin B (unknown origin) at 10 uM by single point assay; format: protein-complex assay
[7] = molecular target: Serine/threonine-protein kinase PLK2 (Homo sapiens) (UniProt Q9NYY3); test: Inhibition of PLK2 (unknown origin) at 10 uM by single point assay
Chain of Serine/threonine-protein kinase PLK2 (Homo sapiens) (Q9NYY3 whole entry, looked up): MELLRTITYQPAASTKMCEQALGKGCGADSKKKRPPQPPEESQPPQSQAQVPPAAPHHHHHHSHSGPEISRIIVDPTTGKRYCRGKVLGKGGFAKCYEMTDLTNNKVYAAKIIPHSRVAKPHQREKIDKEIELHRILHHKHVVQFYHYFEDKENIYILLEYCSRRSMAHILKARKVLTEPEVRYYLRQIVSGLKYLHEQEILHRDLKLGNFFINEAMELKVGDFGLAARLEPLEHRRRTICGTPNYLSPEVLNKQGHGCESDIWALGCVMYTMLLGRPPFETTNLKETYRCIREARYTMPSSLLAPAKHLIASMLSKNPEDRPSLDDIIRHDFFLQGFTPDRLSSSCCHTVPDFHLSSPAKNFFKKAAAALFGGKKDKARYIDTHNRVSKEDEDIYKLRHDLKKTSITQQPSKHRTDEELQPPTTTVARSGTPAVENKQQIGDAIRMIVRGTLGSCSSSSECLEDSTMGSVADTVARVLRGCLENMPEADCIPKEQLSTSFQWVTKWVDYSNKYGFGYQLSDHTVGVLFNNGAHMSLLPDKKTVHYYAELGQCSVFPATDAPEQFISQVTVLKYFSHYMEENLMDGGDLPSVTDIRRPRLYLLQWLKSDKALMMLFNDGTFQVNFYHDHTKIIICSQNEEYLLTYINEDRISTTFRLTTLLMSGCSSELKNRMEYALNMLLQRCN

[8] = molecular target: Dual specificity tyrosine-phosphorylation-regulated kinase 1B (Homo sapiens) (UniProt Q9Y463); test: Inhibition of DYRK1B (unknown origin) at 10 uM by single point assay
Chain of Dual specificity tyrosine-phosphorylation-regulated kinase 1B (Homo sapiens) (Q9Y463 whole entry, looked up): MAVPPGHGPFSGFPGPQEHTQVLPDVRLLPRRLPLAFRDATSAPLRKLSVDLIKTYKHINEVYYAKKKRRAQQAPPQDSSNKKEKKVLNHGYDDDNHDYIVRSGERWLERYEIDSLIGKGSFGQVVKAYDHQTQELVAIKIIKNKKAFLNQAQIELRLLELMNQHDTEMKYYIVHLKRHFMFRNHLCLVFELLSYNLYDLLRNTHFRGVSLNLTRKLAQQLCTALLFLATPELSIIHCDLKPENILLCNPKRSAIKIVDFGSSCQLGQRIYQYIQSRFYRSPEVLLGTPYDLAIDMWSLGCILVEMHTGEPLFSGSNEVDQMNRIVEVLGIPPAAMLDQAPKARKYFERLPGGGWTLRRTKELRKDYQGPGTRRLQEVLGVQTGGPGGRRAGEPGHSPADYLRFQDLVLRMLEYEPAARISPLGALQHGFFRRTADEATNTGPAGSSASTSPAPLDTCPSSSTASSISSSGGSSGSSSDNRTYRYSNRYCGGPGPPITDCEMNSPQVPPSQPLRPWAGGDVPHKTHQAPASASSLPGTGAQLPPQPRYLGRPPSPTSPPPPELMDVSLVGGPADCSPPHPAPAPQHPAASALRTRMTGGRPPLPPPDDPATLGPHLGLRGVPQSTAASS

[9] = molecular target: Receptor-type tyrosine-protein kinase FLT3 (Homo sapiens) (UniProt P36888); test: Inhibition of FLT3 (unknown origin) at 10 uM by single point assay
Chain of Receptor-type tyrosine-protein kinase FLT3 (Homo sapiens) (P36888 whole entry): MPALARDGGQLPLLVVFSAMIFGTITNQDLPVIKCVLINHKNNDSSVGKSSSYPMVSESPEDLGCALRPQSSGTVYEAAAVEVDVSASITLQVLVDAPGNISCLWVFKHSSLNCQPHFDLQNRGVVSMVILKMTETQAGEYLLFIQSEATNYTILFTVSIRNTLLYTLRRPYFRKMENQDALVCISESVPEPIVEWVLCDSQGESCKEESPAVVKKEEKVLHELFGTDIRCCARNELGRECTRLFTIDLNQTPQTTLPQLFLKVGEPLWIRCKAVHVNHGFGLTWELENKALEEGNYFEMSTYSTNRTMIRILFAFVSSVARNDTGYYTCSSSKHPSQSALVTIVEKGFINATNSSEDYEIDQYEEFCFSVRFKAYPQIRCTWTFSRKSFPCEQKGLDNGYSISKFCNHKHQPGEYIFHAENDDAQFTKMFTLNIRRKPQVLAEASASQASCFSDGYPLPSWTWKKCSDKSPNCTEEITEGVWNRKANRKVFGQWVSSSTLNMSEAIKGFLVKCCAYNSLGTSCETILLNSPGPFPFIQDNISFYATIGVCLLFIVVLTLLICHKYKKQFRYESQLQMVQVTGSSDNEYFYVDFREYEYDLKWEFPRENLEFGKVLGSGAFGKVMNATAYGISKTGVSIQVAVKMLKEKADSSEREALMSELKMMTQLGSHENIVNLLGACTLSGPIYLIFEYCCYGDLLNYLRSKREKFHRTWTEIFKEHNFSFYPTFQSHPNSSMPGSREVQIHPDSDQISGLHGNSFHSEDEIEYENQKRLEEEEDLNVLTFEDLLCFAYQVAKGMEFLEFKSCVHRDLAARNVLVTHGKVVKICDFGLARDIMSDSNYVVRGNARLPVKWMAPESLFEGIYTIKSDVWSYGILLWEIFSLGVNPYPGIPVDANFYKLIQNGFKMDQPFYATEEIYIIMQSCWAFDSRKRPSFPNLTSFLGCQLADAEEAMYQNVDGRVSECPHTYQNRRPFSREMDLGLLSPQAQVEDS

[10] = molecular target: Cyclin-dependent kinase 2/cyclin A (Homo sapiens) (UniProt P24941+P20248+P78396); test: Inhibition of CDK2/cyclin A (unknown origin) at 10 uM by single point assay; format: protein-complex assay
[11] = molecular target: Protein kinase C beta type (Homo sapiens) (UniProt P05771); test: Inhibition of PKCbeta1 (unknown origin) at 10 uM by single point assay
[12] = molecular target: Proto-oncogene tyrosine-protein kinase receptor Ret (Homo sapiens) (UniProt P07949); test: Inhibition of RET (unknown origin) at 10 uM by single point assay
[13] = molecular target: Receptor tyrosine-protein kinase erbB-4 (Homo sapiens) (UniProt Q15303); test: Inhibition of ErbB4 (unknown origin) at 10 uM by single point assay
[14] = molecular target: Calcium/calmodulin-dependent protein kinase type II subunit alpha (Homo sapiens) (UniProt Q9UQM7); test: Inhibition of CAMK2alpha (unknown origin) at 10 uM by single point assay
Chain of Calcium/calmodulin-dependent protein kinase type II subunit alpha (Homo sapiens) (Q9UQM7 whole entry): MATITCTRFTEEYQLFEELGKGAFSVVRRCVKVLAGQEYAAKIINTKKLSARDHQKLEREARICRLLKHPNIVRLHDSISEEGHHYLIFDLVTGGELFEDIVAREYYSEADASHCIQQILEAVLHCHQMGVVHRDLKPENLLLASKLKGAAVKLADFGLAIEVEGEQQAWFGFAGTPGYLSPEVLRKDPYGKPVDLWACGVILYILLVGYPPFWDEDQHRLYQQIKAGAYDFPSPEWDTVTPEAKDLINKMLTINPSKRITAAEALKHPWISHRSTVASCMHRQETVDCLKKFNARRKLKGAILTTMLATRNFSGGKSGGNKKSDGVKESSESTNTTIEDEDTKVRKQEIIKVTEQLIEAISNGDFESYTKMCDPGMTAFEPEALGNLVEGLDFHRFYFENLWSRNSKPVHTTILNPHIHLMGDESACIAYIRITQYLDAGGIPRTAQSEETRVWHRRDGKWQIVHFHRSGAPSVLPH

[15] = molecular target: T2, Interleukin-1 receptor-associated kinase 4 (Homo sapiens) (UniProt Q9NWZ3); test: Inhibition of IRAK4 (unknown origin) at 10 uM by single point assay
T2 sequence (whole entry): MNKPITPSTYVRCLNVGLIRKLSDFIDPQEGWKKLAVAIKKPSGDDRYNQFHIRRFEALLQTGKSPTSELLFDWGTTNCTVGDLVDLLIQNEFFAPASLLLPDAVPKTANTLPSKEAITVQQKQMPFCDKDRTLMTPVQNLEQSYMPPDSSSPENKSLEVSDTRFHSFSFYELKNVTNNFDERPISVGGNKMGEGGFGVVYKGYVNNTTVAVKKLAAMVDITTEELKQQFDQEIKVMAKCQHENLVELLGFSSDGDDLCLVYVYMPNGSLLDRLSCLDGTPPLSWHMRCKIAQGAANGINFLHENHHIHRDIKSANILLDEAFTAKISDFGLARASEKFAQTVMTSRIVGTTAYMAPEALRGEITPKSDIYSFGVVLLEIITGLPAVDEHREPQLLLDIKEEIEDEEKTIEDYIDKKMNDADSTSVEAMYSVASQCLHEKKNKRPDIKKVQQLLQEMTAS

[16] = molecular target: Serine/threonine-protein kinase PAK 4 (Homo sapiens) (UniProt O96013); test: Inhibition of PAK4 (unknown origin) at 10 uM by single point assay
Plasma [17] = test: Plasma concentration in mouse expressing mouse LRRK2 G2019S mutant at 30 mg/kg, po; format: ADME, organism-based; set-up: dose 30 mg/kg, route oral; conditions: in vivo
Brain = test: Drug uptake in brain of mouse expressing mouse LRRK2 G2019S mutant at 100 mg/kg, po; format: ADME, organism-based; set-up: dose 100 mg/kg, route oral; conditions: in vivo
Plasma [18] = test: Plasma concentration in mouse expressing mouse LRRK2 G2019S mutant at 100 mg/kg, po; format: ADME, organism-based; set-up: dose 100 mg/kg, route oral; conditions: in vivo
[19] = Ratio of drug uptake in brain to plasma of mouse expressing mouse LRRK2 G2019S mutant at 100 mg/kg, po; format: ADME, organism-based; set-up: dose 100 mg/kg, route oral; conditions: read-out: BPR
[20] = molecular target: Mitogen-activated protein kinase 10 (Homo sapiens) (UniProt P53779); test: Inhibition of MAPK10 (unknown origin) at 1 uM by single point assay
Chain of Mitogen-activated protein kinase 10 (Homo sapiens) (P53779 whole entry): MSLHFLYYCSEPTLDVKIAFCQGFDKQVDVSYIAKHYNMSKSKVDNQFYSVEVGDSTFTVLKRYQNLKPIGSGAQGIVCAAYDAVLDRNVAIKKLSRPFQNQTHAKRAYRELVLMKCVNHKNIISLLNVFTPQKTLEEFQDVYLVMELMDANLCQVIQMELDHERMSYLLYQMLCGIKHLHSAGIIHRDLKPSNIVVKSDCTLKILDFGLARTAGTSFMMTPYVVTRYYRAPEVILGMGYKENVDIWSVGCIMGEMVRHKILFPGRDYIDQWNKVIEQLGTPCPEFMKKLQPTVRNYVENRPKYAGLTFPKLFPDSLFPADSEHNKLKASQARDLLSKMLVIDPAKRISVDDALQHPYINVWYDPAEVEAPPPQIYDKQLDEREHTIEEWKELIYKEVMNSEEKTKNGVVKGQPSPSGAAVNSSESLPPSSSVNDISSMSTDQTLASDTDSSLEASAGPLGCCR

Chain of Glycogen synthase kinase-3 beta (Homo sapiens) (P49841 whole entry, looked up): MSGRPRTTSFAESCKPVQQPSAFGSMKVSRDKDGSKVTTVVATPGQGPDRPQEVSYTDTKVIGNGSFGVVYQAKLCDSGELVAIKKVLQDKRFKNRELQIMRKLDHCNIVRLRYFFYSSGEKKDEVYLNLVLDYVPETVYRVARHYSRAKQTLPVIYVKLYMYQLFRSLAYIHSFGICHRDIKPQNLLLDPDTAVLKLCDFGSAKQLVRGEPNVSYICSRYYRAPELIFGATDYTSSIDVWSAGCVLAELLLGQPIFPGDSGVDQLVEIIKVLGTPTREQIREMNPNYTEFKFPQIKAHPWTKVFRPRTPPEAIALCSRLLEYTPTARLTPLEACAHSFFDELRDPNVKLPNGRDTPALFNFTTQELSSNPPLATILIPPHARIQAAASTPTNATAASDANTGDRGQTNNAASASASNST

inhibition [1]: 1% | inhibition [2]: 30% | inhibition [3]: 4% | inhibition [4]: 40% | inhibition [5]: 11% | inhibition [6]: 12% | inhibition [7]: 54% | inhibition [8]: 24% | inhibition [9]: 44% | inhibition [10]: 0% | inhibition [11]: -2% | inhibition [12]: 12% | inhibition [13]: 7% | inhibition [14]: 30% | inhibition [15]: 10% | inhibition [16]: 19%
SMILES: C[C@@H](Nc1c(C#N)cnc2cc(-c3ccc(-n4ccoc4=O)cc3)ccc12)C1CC1

Cp (Plasma [17]): 4.7 ng/mL | Drug uptake (Brain): 81.1 ng/mL | Cp (Plasma [18]): 31.8 ng/mL | Kp [19]: 2.1 | inhibition [20]: 4%
SMILES: CC(C)Nc1c(C#N)cnc2cc(-c3cnn(C)c3)ccc12
